From ChEMBL document CHEMBL1201862, “PubChem BioAssay data set” (2004)
Blank lines part the entries; values can stand above or below the molecule they belong to. Activity calls are given as the source filed them.

Experiments:
[1] = biological target: Muscarinic acetylcholine receptor M5 (Homo sapiens, UniProt P08912); experiment: potentiation of ACh response at human M5 – cell-based, concentration-response curve, dose response (AID 651878); format: functional
[2] = Late stage assay provider results from the probe development effort to identify selective inhibitors of heat shock protein 90 (HSP90): Absorbance-based cell proliferation assay in SKBR3 cells.; format: functional; conditions: SK-BR-3
[3] = Late stage assay provider results from the probe development effort to identify selective inhibitors of heat shock protein 90 (HSP90): Absorbance-based cell proliferation assay in MCF7 cells.; format: functional
Vasopressin V1b receptor = Vasopressin V1b receptor (Homo sapiens, UniProt P47901); experiment: Late-stage results from the probe development effort to identify antagonists of arginine vasopressin receptor 1a (AVPR1a): fluorescence-based cell-based dose response AVPR1b inhibition counterscreen assay.; format: functional
Sequence of Vasopressin V1b receptor (P47901 whole entry): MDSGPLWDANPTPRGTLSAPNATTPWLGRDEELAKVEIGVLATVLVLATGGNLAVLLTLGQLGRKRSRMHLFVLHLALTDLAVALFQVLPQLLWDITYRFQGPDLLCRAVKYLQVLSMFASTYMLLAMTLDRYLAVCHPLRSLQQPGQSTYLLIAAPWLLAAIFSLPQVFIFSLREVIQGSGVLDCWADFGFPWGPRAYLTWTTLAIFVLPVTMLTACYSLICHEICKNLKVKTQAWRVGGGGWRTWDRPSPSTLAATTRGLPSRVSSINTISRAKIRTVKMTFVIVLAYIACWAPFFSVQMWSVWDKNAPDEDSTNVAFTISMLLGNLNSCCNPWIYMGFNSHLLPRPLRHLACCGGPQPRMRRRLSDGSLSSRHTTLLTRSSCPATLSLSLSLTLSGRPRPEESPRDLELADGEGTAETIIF

[4] = Late-stage results from the probe development effort to identify antagonists of arginine vasopressin receptor 1a (AVPR1a): fluorescence-based cell-based dose response AVPR1a inhibition assay.; format: functional
[5] = Late-stage results from the probe development effort to identify antagonists of arginine vasopressin receptor 1a (AVPR1a): fluorescence-based cell-based dose response OXTR inhibition counterscreen assay.; format: functional
Vasopressin V2 receptor = Vasopressin V2 receptor (Homo sapiens, UniProt P30518); experiment: Late-stage results from the probe development effort to identify antagonists of arginine vasopressin receptor 1a (AVPR1a): fluorescence-based cell-based dose response AVPR2 inhibition counterscreen assay.; format: functional
Sequence of Vasopressin V2 receptor (P30518 whole entry): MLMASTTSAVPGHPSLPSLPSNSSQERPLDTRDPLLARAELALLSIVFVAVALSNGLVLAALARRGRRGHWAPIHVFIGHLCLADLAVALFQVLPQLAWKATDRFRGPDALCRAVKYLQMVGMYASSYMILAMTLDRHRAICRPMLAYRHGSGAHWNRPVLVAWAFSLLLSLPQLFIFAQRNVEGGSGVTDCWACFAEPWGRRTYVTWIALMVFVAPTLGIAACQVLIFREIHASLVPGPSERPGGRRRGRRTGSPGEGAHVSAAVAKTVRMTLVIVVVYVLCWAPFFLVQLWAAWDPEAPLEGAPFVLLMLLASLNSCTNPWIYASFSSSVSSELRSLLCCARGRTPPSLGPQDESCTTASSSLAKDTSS

[6] = biological target: NAD-dependent protein deacylase sirtuin-5, mitochondrial (Homo sapiens, UniProt Q9NXA8); experiment: blockers of sirtuin-5 peptide desuccinylation – biochemical, fluorescence imaging, cherry-pick, set 6, dose response (AID 720597)
Sequence of NAD-dependent protein deacylase sirtuin-5, mitochondrial (Q9NXA8 whole entry): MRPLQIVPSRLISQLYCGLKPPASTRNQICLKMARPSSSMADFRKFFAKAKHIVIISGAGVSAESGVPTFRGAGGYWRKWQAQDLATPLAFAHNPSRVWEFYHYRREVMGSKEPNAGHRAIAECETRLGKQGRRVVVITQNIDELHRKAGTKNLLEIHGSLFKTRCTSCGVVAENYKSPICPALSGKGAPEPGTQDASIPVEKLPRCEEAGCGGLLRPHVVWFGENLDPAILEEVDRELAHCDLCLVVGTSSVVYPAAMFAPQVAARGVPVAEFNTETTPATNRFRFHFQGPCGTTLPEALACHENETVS

[7] = cytotoxicity in MITF-independent A375 cells – cell-based, CellTiter-Glo luminescence, dry powder, set 4, counter-screen for MITF inhibitor project, dose response (AID 624364); format: functional; conditions: A-375;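 note: A375 melanoma cells are MITF independent so this is a counter screen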
[8] = viability loss in MITF-independent A375 cells – cell-based, CellTiter-Glo luminescence, dry powder, set 2, counter-screen for MITF inhibitor project, dose response (AID 624489); format: functional; conditions: A-375;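 note: actives are compounds lowering A375 viability meaning general cytotoxicity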
[9] = growth inhibition of PfATP4-mutant resistant parasites – NITD609-resistant line, SYBR Green, dry powder, dose response (AID 1159571); format: functional, cell-based;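 note: parasites synchronized at ring stage by sorbitol before testing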
[10] = P. falciparum Dd2 growth inhibitors, dose response, SYBR Green, cherry-picked samples (AID 1159567); format: functional, cell-based
[11] = growth inhibition of yeast DHODH-expressing 3D7 parasites – SYBR Green, dry powder samples, dose response (AID 1159570); format: functional, cell-based;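 note: parasite growth measured after 72 hours of compound exposure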
[12] = toxicity to human HepG2 hepatoma cells – cell-based, plate reader, dry powder samples, cytotoxicity control, dose response (AID 1159569); format: functional;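 note: inhibitor potency with signal falling toward the positive control level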
[13] = Plasmodium falciparum Dd2 Sybr green parasite growth Measured in Cell-Based and Microorganism Combination System Using Plate Reader - 2153-01_Inhibitor_Dose_DryPowder_Activity_Set3.; format: functional
[14] = Dd2 malaria parasite growth inhibition potency – SYBR Green, dry powder samples, dose response (AID 1159566); format: functional, cell-based;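 note: potency for growth inhibition with lower SYBR green DNA signal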
cells [15] = format: functional, cell-based
cells [16] = format: functional, cell-based; remark: listed apart in the source
[17] = viability loss in HepG2 hepatoma cells – cell-based, ATP luminescence, cherry-pick, activator set 2, cytotoxicity control, dose response (AID 1053143); format: functional
[18] = rise of 4N DNA cells, HeLa – IC50, dose response (AID 1117351); format: functional, cell-based
[19] = rise of 2N DNA cells, HeLa – IC50, dose response (AID 1117349); format: functional, cell-based
[20] = RKO cell viability reduction, dose response, CellTiter-Glo luminescence (AID 1117322); format: functional
[21] = cytotoxicity toward Colo320 cells – cell-based, CellTiter-Glo luminescence, IC50, dose response (AID 1117334); format: functional; conditions: COLO 320
[22] = cytotoxicity toward HCT116 cells – cell-based, CellTiter-Glo luminescence, IC50, dose response (AID 1117332); format: functional; conditions: HCT-116
[23] = SNU-C1 cell viability reduction, dose response, CellTiter-Glo luminescence (AID 1117323); format: functional, cell-based
[24] = CellTiter-Glo luminescence survival assay, SW480 colon tumor line, concentration-response curve, half-maximal inhibitory concentration (AID 1117338); format: functional
[25] = IC50 of insulin release inhibition, rat insulinoma INS-1E line, 5 mM glucose, cell-based (AID 1117331); format: functional
[26] = Reduced DLD-1 viability, concentration-response, CellTiter-Glo luminescence (AID 1117352); format: functional
cells [27] = format: functional, cell-based; conditions: INS-1E
[28] = glucagon-like peptide-1 release potency in STC-1, concentration-response, half-maximal inhibitory concentration in the STC-1 line (AID 1117345); format: functional, cell-based
[29] = Potency on glucagon-like peptide 1 release, dose-response in NCI-H716 cell line, half maximal inhibitory concentration (AID 1117344); format: functional, cell-based
[30] = cytotoxicity toward HT-29 cells – cell-based, CellTiter-Glo luminescence, IC50, dose response (AID 1117330); format: functional
[31] = HCT116 cell viability decrease, GSK3B pretreatment – CellTiter-Glo, IC50, dose response (AID 1117339); format: functional; conditions: HCT-116

Sequence of Muscarinic acetylcholine receptor M5 (P08912 whole entry): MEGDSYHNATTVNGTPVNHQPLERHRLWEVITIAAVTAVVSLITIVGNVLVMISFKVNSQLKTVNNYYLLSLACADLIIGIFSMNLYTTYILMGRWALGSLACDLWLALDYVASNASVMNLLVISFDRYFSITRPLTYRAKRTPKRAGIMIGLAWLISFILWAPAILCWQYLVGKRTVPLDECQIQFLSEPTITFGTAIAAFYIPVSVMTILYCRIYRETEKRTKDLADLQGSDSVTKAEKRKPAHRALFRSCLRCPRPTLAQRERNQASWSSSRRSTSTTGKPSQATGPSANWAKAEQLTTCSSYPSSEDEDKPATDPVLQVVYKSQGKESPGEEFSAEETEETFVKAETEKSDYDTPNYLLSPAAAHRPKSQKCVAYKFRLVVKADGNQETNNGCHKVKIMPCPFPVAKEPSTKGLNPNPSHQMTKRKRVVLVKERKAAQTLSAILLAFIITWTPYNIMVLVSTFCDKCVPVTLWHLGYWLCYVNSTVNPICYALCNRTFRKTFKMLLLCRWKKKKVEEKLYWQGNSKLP

EC50 [1]: 0.36 µM (active)
Compound: O=C1C(=O)N(CCOc2ccc(C(F)(F)F)cc2)c2ccc(OC(F)(F)F)cc21

Compound: CC(NC(=O)c1coc(=O)c(Br)c1)C1C2CCC3CC(C2)CC31 (centres undefined)
IC50 [2]: 8.3 µM (active)
IC50 [3]: 1.8 µM (active)

Compound: COc1ccc(N(CC2CC2)C(=O)N2CCN(c3cc(Cl)ccc3C)CC2)cc1
IC50 (Vasopressin V1b receptor): 16.6 µM (inactive)
IC50 [4]: 0.0363 µM (active)
IC50 [5]: 0.25 µM (active)
IC50 (Vasopressin V2 receptor): 11.3 µM (inactive)

AC50 [6]: > 30 µM (inactive)
Compound: C[C@H](CO)N1C[C@H](C)[C@@H](CN(C)C(=O)C2CCCCC2)OCCCC[C@H](C)Oc2ccc(NC(=O)Nc3ccc(F)cc3)cc2C1=O

Compound: CCN(CC)CCCNC1=C(Nc2ccccc2)C(=O)c2ccccc2C1=O
AC50 [7]: 65 µM (active)
AC50 [8]: 31 µM (active)

Compound: CCCNC(=O)N1[C@H](C#N)[C@H](c2ccc(-c3cccc(OC)c3)cc2)[C@H]1CO
AC50 [9]: 0.0278 µM (active)
AC50 [10]: < 0.3 µM (active)
AC50 [11]: 10.4 µM (active)
AC50 [12]: > 100 µM (inactive)
AC50 [13]: 0.0751 µM (active)
AC50 [14]: 0.0154 µM (active)

Compound: Nc1ccccc1NC(=O)c1ccccc1
EC50 (cells [15]): 13.8 µM (active)
EC50 (cells [16]): > 350 µM (not active)
AC50 [17]: 17.5 µM (active)

Compound: CN(C)CCOC(c1ccccc1)c1ccc(Br)cc1 (centres undefined) [BROMODIPHENHYDRAMINE]
IC50 [18]: > 10 µM (inactive)
IC50 [19]: > 10 µM (inactive)
IC50 [20]: > 20 µM (inactive)
IC50 [21]: > 20 µM (inactive)
IC50 [22]: > 20 µM (inactive)
IC50 [23]: 3.1 µM (active)
IC50 [24]: > 20 µM (inactive)
IC50 [25]: 2.77 µM (active)
IC50 [26]: > 20 µM (inactive)
IC50 (cells [27]): > 33.3 µM (inactive)

Compound: O=C(O)c1cc(/N=N/c2ccc(O)c(C(=O)O)c2)ccc1O [OLSALAZINE]
IC50 [28]: 9.54 µM (inactive)
IC50 [29]: > 40 µM (inactive)

Compound: Clc1ccc(C(Cn2ccnc2)OCc2ccsc2Cl)c(Cl)c1 (centres undefined) [TIOCONAZOLE]
IC50 [30]: > 20 µM (inactive)
IC50 [20]: 5.25 µM (inactive)
IC50 [21]: 5.23 µM (inactive)
IC50 [22]: 4.07 µM (active)
IC50 [23]: 2.18 µM (active)
IC50 [24]: > 20 µM (inactive)
IC50 [31]: 2.84 µM (active)
IC50 [26]: > 20 µM (inactive)
